Patent US7740841B1, “Therapeutic method for reducing angiogenesis” (Sunnybrook Health Science Center, priority 2000, dated 2010)

Experiments:
HUVEC = assay: In vitro drug sensitivity, 3H-thymidine incorporation; type: cell-based, human; settings: 24 hours
Source text: (§1) Cells and culture conditions: Neuroblastoma cell lines SK-N-MC, SK-N-AS were obtained from American Type Culture Collection (ATCC) and expanded as a monolayer culture by serial passage on tissue culture plates (Nunc, Denmark) in DMEM, 5% fetal bovine serum (Gibco, Grand Island, N.Y., USA). Human umbilical vein endothelial cells (HUVEC) (Clonetics, San Diego, Calif.) were expanded on 1% gelatin-coated tissue culture plates in MCDB131 culture medium (JRH Biosciences, Lenexa, Kans., USA) supplemented with 5 ng/ml bFGF (R&D, Minneapolis, Minn.), 10 units/ml heparin (Wyeth-Ayerst Canada), 10 ng/ml EGF (UBI, Lake Placid, N.Y.) and 10% fetal bovine serum.
(§2) In vitro determination of drug sensitivity: Three thousand cells in 200 μl growth media per well were plated in 96-well flat bottom tissue culture plates (Nunc, Denmark) and incubated at 37° C., 5% CO2 for 24 hours prior to initiation of treatment. […] The cells were then pulsed for 6 hrs with 2 μCi/well of methyl-^3H-thymidine (Amersham Life Science, Buckinghamshire, England). The plates were frozen, thawed and the DNA harvested onto a filtermat using a Titertek Cell Harvester. Incorporated radioactivity was measured on Wallac 1205 BetaPlate Scintillation Counter (Wallac Oy, Finland) and proliferation was expressed as a percentage of ^3H-thymidine in treated cells vs. that in controls.
(§3) All three cell lines were grown in DMEM with […], but the HUVEC were grown on gelatinized plates and in the presence of additional growth factors (bFGF and EGF).

SK-N-AS cells = assay: as above; type: cell-based, human; settings: 100-400 ng/ml, 24 hours
Source text: as §1, §2, §3

SK-N-MC cells = assay: as above; type: cell-based, human; settings: 100-400 ng/ml, 24 hours
Source text: as §1
In vitro determination of drug sensitivity: Three thousand cells in 200 μl growth media per well were plated in 96-well flat bottom tissue culture plates (Nunc, Denmark) and incubated at 37° C., 5% CO2 for 24 hours prior to initiation of treatment. The cells were then washed with PBS and treated with 1-500 ng/ml vinblastine sulphate (Calbiochem, La Jolla, Calif.) for 24 hours, in groups of eight wells per dose. […] Incorporated radioactivity was measured on Wallac 1205 BetaPlate Scintillation Counter (Wallac Oy, Finland) and proliferation was expressed as a percentage of ^3H-thymidine in treated cells vs. that in controls. […]

[1] = tested on: SK-N-MC neuroepithelioma or SK-N-AS neuroblastoma xenografts; assay: In vivo tumor growth assessment, subcutaneous xenografts; parameters: species or system CB-17 SCID mice; settings: established ~0.75 cm^3 xenografts; DC101 800 μg i.p. every three days; low-dose vinblastine
Experimental: In vivo tumor growth assessment: SK-N-MC, cells were harvested using 1% Trypsin EDTA (GibcoBRL, Gaithesburg, Md.), and single cell suspension of 2×10^6 cells in 0.2 ml of growth media was injected subcutaneously into the flanks of 4-6 week old CB-17 SCID mice (Charles River, St-Constant, Quebec). Approximately 3 weeks later, most tumors had grown to ˜0.75 cm^3, and mice were randomized into groups of 5 animals. Two independent experiments were performed, each totaling 20 animals in 4 groups. The treatment was as follows:
Group I (Control)—0.4 ml of PBS (DC101 vehicle) i.p. every three days and 0.15 ml injectable saline (vinblastine vehicle) i.p. every three days.
Group II—0.4 ml of 2 mg/ml DC101 antibody (800 μg/mouse) (24) every three days and 0.15 ml of injectable saline i.p. every three days
Group III—vinblastine sulfate 0.75 mg/m^2 i.p. bolus at the start of therapy, followed by 1 mg/m^2/day via subcutaneous Alzet osmotic pumps (Alza Corp, Palo Alto, Calif.) for 3 weeks, followed by maintenance therapy with 0.15 ml of 0.067 mg/ml vinblastine sulfate (1.5 mg/m^2) i.p. every three days, and 0.4 ml of PBS i.p. every three days
Group IV—combination of DC101 and vinblastine at doses identical to the single agent groups. […]

[2] = tested on: neuroblastoma xenograft tumors; assay: Histopathologic analysis of tumors (H/E and TUNEL); type: in vivo, CB-17 SCID mice; settings: excised tumors; combination group at 7.5 weeks of treatment
Source text: Histology: All tumors were excised, fixed in 10% (v/v) formalin and processed for immunohistochemical analysis. To obtain adequate tissue for the combination treatment group, two mice were sacrificed at 7.5 weeks of treatment. Paraffin blocks were cut to 5 μm sections and stained with haematoxylin/eosin for morphology evaluation and with Apoptosis Detection System (Promega, Madison, Wis.) for assessment of programmed cell death.
Histopathologic analysis: To further elucidate the mechanisms involved in the tumor regression following treatment with vinblastine, DC101, or the combined therapy, tissue histopathology assessment was undertaken. Cancer cells with high nuclear to cytoplasmic ratio form cuffs around central vessels, and apoptotic cells characterized by pyknotic nuclei and cytoplasmic blebbing, are only evident as a thin rim at the periphery of the cuffs. The nuclei of these cells stain strongly for terminal deoxynucleotidyl transferase (TUNEL) reactivity, as expected for cells undergoing apoptosis. […] There is a close similarity of the appearance of H/E and TUNEL stain. […] Rather than a typical single layer of flattened endothelial cells surrounding the vascular lumen in untreated group, we observed edema, and detachment from surrounding basement membrane and leading to complete vascular wall disintegration and tumor cell death.

[3] = tested on: SK-N-AS human neuroblastoma xenografts; assay: Tumor perfusion by FITC-Dextran fluorescence; type: in vivo, CB-17 SCID mice; settings: vinblastine 1 mg/m^2 i.p. and/or DC101 800 μg i.p. every three days, 10 days
Experimental: Relative tumor vascularity assessed by an FITC-Dextran perfusion assay: The method was designed to assess the relative functionality of the tumor vasculature. 2×10^6 SK-N-AS neuroblastoma cells were injected into the flanks of CB-17 SCID mice. Tumors were allowed to grow to approximately 0.75 cm^3 at which point tumor bearing mice were then treated with 1 mg/m^2 vinblastine i.p. every three days, 800 μg DC101 i.p. every three days, combination of the two agents or saline as a control. […] Fluorescence readings were obtained on a FL600 Fluorescence Plate Reader (Bio-tek Instruments Inc., Winooski, Vt., USA), from a standard curve created by serial dilution of the FITC-dextran used for injection. The ratio of tumor fluorescence:plasma fluorescence was assumed to be reflective of the degree of tumor perfusion.
Tumor perfusion by assessment of intravascular fluorescence: To further explore the possibility that tumor regression induced with treatment using DC101 and vinblastine was indeed due to the vascular injury, rather than a direct anti-tumor cell effect, we assessed tumor perfusion directly by using a FITC-Dextran fluorescence method. […]

[4] = tested on: bFGF induced vascularization; assay: In vivo Matrigel plug angiogenesis assay; parameters: species or system Balb/cJ mice; settings: DC101 800 μg i.p. and/or vinblastine 1 mg/m^2 i.p. on day 4 and 7, sacrifice day 10
Experimental: In vivo angiogenesis assessment by the Matrigel plug assay (5,25): Matrigel (Collaborative Biomedical Products, Bedford, Mass.) stored at −20° C., was thawed at 4° C. overnight and mixed with 500 ng/ml bFGF. 0.5 ml of this mixture was then injected subcutaneously into the shaved flanks of twenty 6-8 week old female Balb/cJ mice (Jackson Labs, Bar Harbor, Me.). Five mice, used as negative controls, were injected with Matrigel alone. Three days later, treatment mice were randomized into four groups as follows: • Group I—saline i.p., • Group II—800 μg DC101 i.p. • Group III—1 mg/m^2 vinblastine i.p. • Group IV—combination therapy.
All 25 mice were treated on day 4 and 7 and sacrificed on day 10. Blood samples were collected into heparinized tubes by cardiac puncture, centrifuged immediately following their collection, plasma separated and protected from light at 4° C. […] The following day, the plugs were homogenized, centrifuged at 5000 rpm for 10 minutes and supernatant saved in the dark for analysis of fluorescence. Fluorescence readings were obtained on FL600 Fluorescence Plate Reader using a standard curve created by serial dilution of FITC-dextran used for injection. Angiogenic response was expressed as a ratio of Matrigel plug fluorescence:plasma fluorescence.
To address these questions, we repeated the same fluorescence measurement using an in vivo Matrigel plug angiogenesis assay. […]

[5] = mouse, in vivo
Experimental: The body weight, tumor size and general clinical status of the animals were recorded every 2-3 days. Perpendicular tumor diameters were measured using a vernier scale caliper and tumor volume was estimated using the formula for ellipsoid: (width^2×length)/2. Growth curves were statistically analyzed using repeated measures ANOVA. […] As required by institutional guidelines, the mice were sacrificed when tumor size reached 1.5 cm^3 or 7.5-10% of their body weight.
To evaluate this aspect of DC101/vinblastine combination therapy, the health status of the mice was monitored. Weight was plotted at regular intervals and considered a surrogate for evaluation of systemic well being, anorexia, or failure to thrive.

[6] = mouse, in vivo; cited from earlier work

CC[C@]1(O)C[C@@H]2CN(CCc3c([nH]c4ccccc34)[C@@](C(=O)OC)(c3cc4c(cc3OC)N(C)[C@H]3[C@@](O)(C(=O)OC)[C@H](OC(C)=O)[C@]5(CC)C=CCN6CC[C@]43[C@@H]65)C2)C1 [vinblastine, vinblastine sulphate]
inhibition of proliferation (3H-thymidine incorporation) (HUVEC; 0.78 ng/ml): retained almost the same degree of inhibitory activity | inhibition of proliferation (3H-thymidine incorporation) (HUVEC; 100-400 ng/ml): strongly inhibited, especially HUVEC | inhibition of proliferation (3H-thymidine incorporation) (SK-N-AS cells): strongly inhibited | inhibition of proliferation (3H-thymidine incorporation) (SK-N-MC cells): strongly inhibited | effect on tumor growth [1]: significant, albeit not sustained, regression of tumor growth | tumor histology (H/E, TUNEL apoptosis) [2]: increase in the width of the apoptotic rims | decrease in tumor perfusion (tumor:plasma fluorescence) [3]: 41% | bFGF induced vascularization of Matrigel plug (plug:plasma fluorescence) [4]: 62.5 % of the positive control group | body weight / toxicity profile [5]: some weight gain retardation, but the differences never became significantly different from controls | MTD in mice relative to MTD in humans [6]: 4-5 times
